{
  "source": "paper PMC6740044",
  "about": "(ACS Omega, 2019)",
  "key": {"[1]": {"target": "Herceptin (human IgG1) (human)", "assay": "SPR"}, "[2]": {"target": "Herceptin (human IgG1) (human)", "assay": "ITC"}, "Herceptin (human IgG1)": {"target": "Herceptin (human IgG1) (Homo sapiens, UniProt P01857)", "sequence (P01857 104-328)": "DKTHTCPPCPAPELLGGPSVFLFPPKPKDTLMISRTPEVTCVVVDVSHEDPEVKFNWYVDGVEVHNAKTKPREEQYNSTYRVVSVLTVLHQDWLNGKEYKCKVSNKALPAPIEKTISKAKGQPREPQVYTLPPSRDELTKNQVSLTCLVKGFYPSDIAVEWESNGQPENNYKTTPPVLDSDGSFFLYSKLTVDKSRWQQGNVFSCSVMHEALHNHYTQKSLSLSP", "assay": "Isothermal titration calorimetry", "conditions": "ITC, 25 °C, single-site binding model, measured three times"}},
  "note": "Bridge positions count the residues as written; N and C are the ends. Peptide text beside a SMILES is read from it.",
  "data": [
    {"compound": "15-Lys8Phe (peptide)", "values": [
      {"measurement": "Kd", "setting": "[1]", "result": 40, "unit": "nM"}
    ]},
    {"compound": "15-Lys8Tle (peptide)", "values": [
      {"measurement": "Kd", "setting": "[2]", "result": 200, "unit": "nM"}
    ]},
    {"compound": "CC(=O)N[C@@H](CC(=O)O)C(=O)N[C@H]1CSSC[C@@H](C(=O)N[C@H](C(=O)N[C@@H](Cc2ccccc2)C(=O)N[C@@H](Cc2c[nH]cn2)C(N)=O)[C@@H](C)O)NC(=O)[C@H](Cc2c[nH]c3ccccc23)NC(=O)[C@H](C(C)C)NC(=O)[C@H](CC(C)C)NC(=O)[C@H](CCC(=O)O)NC(=O)CNC(=O)[C@H](CCCCN)NC(=O)[C@H](Cc2c[nH]cn2)NC(=O)[C@H](Cc2ccc(O)cc2)NC(=O)[C@H](C)NC1=O", "note": "[15-IgBP] (Ac-DCAYHKGELVWCTFH-NH2; disulfide 2-12)", "values": [
      {"measurement": "ΔG", "setting": "Herceptin (human IgG1)", "result": "–9.1 ± 0.0 kcal/mol"},
      {"measurement": "ΔH", "setting": "Herceptin (human IgG1)", "result": "–13 ± 0 kcal/mol"},
      {"measurement": "–TΔS", "setting": "Herceptin (human IgG1)", "result": "3.5 ± 0.1", "unit": "kcal/mol"}
    ]}
  ]
}
